The test system of one assay is PC3MM cells. Put plainly: Cell Proliferation Assay (Cell Titer Glo), PC3MM. The format is cell-based. Conditions: Cell Proliferation Assay, PC3MM; read-out: CPEC50 PC3MM. The method, then: IV. Cell Proliferation Assay Protocol:
A2780, PC-3, or PC3MM cells were seeded at 1000 cells/well in 100 μL/well (10.000 cells/mL) growth media in 96-well plates. Cells were allowed to adhere to the bottom of plates for 3-5 hours in a 37° C. 5% CO2 incubator. Compounds were dissolved in DMSO and then transferred to the cell plates. The cells were incubated with the compounds for 3 days in a 37° C. 5% CO2 incubator. The growth medium containing the compounds was then removed from the cells and fresh medium was added, followed by 100 μL of Cell Titer Glo assay reagent (Promega). This mixture was shaken for 1 minute and then incubated without shaking for 10 minutes. Activity determinations for the compounds were made by detection on a Trilux Instrument.
(ATP-based viability assays read luminescence as a measure of living cells.)

The target of a further assay is T1, PDK1 kinase (Homo sapiens, UniProt O15530).
T1 sequence (O15530 1-556): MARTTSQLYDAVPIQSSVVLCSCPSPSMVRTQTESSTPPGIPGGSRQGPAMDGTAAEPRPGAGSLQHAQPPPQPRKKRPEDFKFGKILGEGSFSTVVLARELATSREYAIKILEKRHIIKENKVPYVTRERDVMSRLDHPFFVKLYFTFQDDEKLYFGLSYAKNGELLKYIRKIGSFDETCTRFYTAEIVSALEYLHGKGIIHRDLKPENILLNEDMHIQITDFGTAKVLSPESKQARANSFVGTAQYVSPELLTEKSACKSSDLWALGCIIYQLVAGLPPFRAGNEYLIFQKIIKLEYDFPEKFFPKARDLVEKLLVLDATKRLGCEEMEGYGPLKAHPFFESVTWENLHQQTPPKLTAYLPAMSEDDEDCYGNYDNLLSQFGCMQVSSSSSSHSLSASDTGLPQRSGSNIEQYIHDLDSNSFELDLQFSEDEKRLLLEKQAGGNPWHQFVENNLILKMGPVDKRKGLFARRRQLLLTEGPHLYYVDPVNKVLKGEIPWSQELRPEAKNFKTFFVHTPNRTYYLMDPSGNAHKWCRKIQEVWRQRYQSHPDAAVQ
Put plainly: PDK1 Kinase Alpha Screen Assay. Conditions: PDK1 Kinase Alpha Screen Assay; read-out: PDK1 IC50. It counts as biochemical. The essentials:
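Detection used AlphaScreen: streptavidin donor and protein A acceptor beads (25 μg/ml each) bridged by a phospho-(Ser/Thr) PKA substrate antibody binding phosphorylated peptide. Reaction: biotin-PDK1-4 peptide (50 nM), ATP (10 uM), PDK1 in pH 7.5 Tris/MgCl2/DTT buffer, 3-18 hours, EDTA-stopped.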

pEC50, pIC50: −log10 of the molar value.

The pIC50 is the negative decadic logarithm of the IC50, by convention in mol/L. In the case of `c1cc(N2CCOCC2)ccc1Nc1ncc2cc(-c3cn[nH]c3)c(OC3CCNCC3)cc2n1` [Compound 651, N-(4-morpholinophenyl)-7-(piperidin-4-yloxy)-6-(1H-pyrazol-4-yl)quinazolin-2-amine], the pEC50 in the assay with PC3MM cells was greater than 5.30. In addition, on PDK1 kinase, the negative logarithm of the IC50 (pIC50) was greater than 5.30.

For the compound `CN1CCC(Oc2cc3nc(Nc4ccc(N5CCOCC5)cc4)ncc3cc2-c2cn[nH]c2)CC1` [Compound 654, 7-(1-methylpiperidin-4-yloxy)-N-(4-morpholinophenyl)-6-(1H-pyrazol-4-yl)quinazolin-2-amine], the pEC50 in the assay on PC3MM cells was greater than 5.30. The pIC50 on PDK1 kinase is greater than 5.30.

For `CN1CCC(Oc2ccc3cnc(Nc4ccc(N5CCOCC5)cc4)nc3c2)CC1` [Compound 655, 7-(1-methylpiperidin-4-yloxy)-N-(4-morpholinophenyl)quinazolin-2-amine], the pEC50 with PC3MM cells is greater than 5.30. Moreover, the pIC50 at PDK1 kinase was greater than 5.30.

For the compound `COC(=O)Nc1cc(CN2CCOCC2)cc(Nc2ncc3cccc(OC4CCNCC4)c3n2)c1` [Compound 656, methyl 3-(morpholinomethyl)-5-(8-(piperidin-4-yloxy)quinazolin-2-ylamino)phenylcarbamate], the pEC50 in the assay with PC3MM cells is greater than 5.30. Besides, on PDK1 kinase, the pIC50 was greater than 5.30.

In the case of `C#Cc1cc(OC2CCNCC2)c2nc(Nc3cc(NC(C)=O)cc(-c4cncnc4)c3)ncc2c1` [Compound 657, N-(3-(6-ethynyl-8-(piperidin-4-yloxy)quinazolin-2-ylamino)-5-(pyrimidin-5-yl)phenyl)acetamide], the pEC50 in the assay on PC3MM cells was greater than 5.30. Moreover, the pIC50 at PDK1 kinase was greater than 5.30.

In the case of `CC(=O)Nc1cc(NC(C)=O)cc(Nc2ncc3ccc(OC4CCNCC4)cc3n2)c1` [Compound 658, N,N′-(5-(7-(piperidin-4-yloxy)quinazolin-2-ylamino)-1,3-phenylene)diacetamide], the pEC50 in the assay with PC3MM cells was 5.00 to 5.30. The pIC50 at PDK1 kinase was greater than 5.30.

Take `CC(=O)Nc1cc(Nc2ncc3ccc(OC4CCNCC4)cc3n2)cc(-c2cn[nH]c2)c1` [Compound 659, N-(3-(7-(piperidin-4-yloxy)quinazolin-2-ylamino)-5-(1H-pyrazol-4-yl)phenyl)acetamide]: the pEC50 with PC3MM cells was greater than 5.30. Moreover, at PDK1 kinase, the pIC50 was greater than 5.30.

For the compound `CN1CCC(Oc2ccc3cnc(Nc4cc(C(N)=O)cc(-c5cnn(C)c5)c4)nc3c2)CC1` [Compound 660, 3-(1-methyl-1H-pyrazol-4-yl)-5-(7-(1-methylpiperidin-4-yloxy)quinazolin-2-ylamino)benzamide], in the assay with PC3MM cells, the pEC50 was greater than 5.30. In addition, the pIC50 on PDK1 kinase is greater than 5.30.

For `COC(=O)Nc1cc(Nc2ncc3cc(-c4cn[nH]c4)c(OC4CCNCC4)cc3n2)cc(-c2cn[nH]c2)c1` [Compound 661, methyl 3-(7-(piperidin-4-yloxy)-6-(1H-pyrazol-4-yl)quinazolin-2-ylamino)-5-(1H-pyrazol-4-yl)phenylcarbamate], the pEC50 in the assay on PC3MM cells was greater than 5.30. The pIC50 on PDK1 kinase is greater than 5.30.

Regarding `COC(=O)Nc1cc(Nc2ncc3cc(-c4nccs4)c(OC4CCNCC4)cc3n2)cc(-c2cn[nH]c2)c1` [Compound 662, methyl 3-(7-(piperidin-4-yloxy)-6-(thiazol-2-yl)quinazolin-2-ylamino)-5-(1H-pyrazol-4-yl)phenylcarbamate], the pEC50 in the assay on PC3MM cells is greater than 5.30. For the same compound, the pIC50 on PDK1 kinase was greater than 5.30.

Turning to `NC(=O)c1cc(Nc2ncc3cc(-c4cn[nH]c4)cc(OC4CCNCC4)c3n2)cc(N2CCOCC2)c1` [Compound 663, 3-morpholino-5-(8-(piperidin-4-yloxy)-6-(1H-pyrazol-4-yl)quinazolin-2-ylamino)benzamide], the pEC50 with PC3MM cells was 5.00 to 5.30. The negative logarithm of the IC50 (pIC50) on PDK1 kinase was greater than 5.30.

In the case of `O=C(c1cc(Nc2ncc3cc(-c4cn[nH]c4)cc(OC4CCNCC4)c3n2)cc(N2CCOCC2)c1)N1CCOCC1` [Compound 664, morpholino(3-morpholino-5-(8-(piperidin-4-yloxy)-6-(1H-pyrazol-4-yl)quinazolin-2-ylamino)phenyl)methanone], the pEC50 in the assay on PC3MM cells was 5.00 to 5.30. In addition, the pIC50 on PDK1 kinase is greater than 5.30.

As for `Cn1cc(-c2cc(Nc3ncc4cc(-c5cn[nH]c5)cc(OC5CCNCC5)c4n3)cc(C(N)=O)c2)cn1` [Compound 665, 3-(1-methyl-1H-pyrazol-4-yl)-5-(8-(piperidin-4-yloxy)-6-(1H-pyrazol-4-yl)quinazolin-2-ylamino)benzamide], in the assay with PC3MM cells, the pEC50 is 5.00 to 5.30. For the same compound, at PDK1 kinase, the pIC50 was greater than 5.30.

Turning to `C#Cc1cc(OC2CCNCC2)c2nc(Nc3cc(C(N)=O)cc(N4CCOCC4)c3)ncc2c1` [Compound 666, 3-(6-ethynyl-8-(piperidin-4-yloxy)quinazolin-2-ylamino)-5-morpholinobenzamide], the pEC50 in the assay with PC3MM cells was 5.00 to 5.30. Further, the pIC50 on PDK1 kinase is greater than 5.30.

Regarding `C#Cc1cc(OC2CCNCC2)c2nc(Nc3cc(C(=O)N4CCOCC4)cc(N4CCOCC4)c3)ncc2c1` [Compound 667, (3-(6-ethynyl-8-(piperidin-4-yloxy)quinazolin-2-ylamino)-5-morpholinophenyl)(morpholino) methanone], in the assay on PC3MM cells, the pEC50 is greater than 5.30. Moreover, the pIC50 at PDK1 kinase is greater than 5.30.

Regarding `C#Cc1cc(OC2CCNCC2)c2nc(Nc3cc(C(N)=O)cc(-c4cnn(C)c4)c3)ncc2c1` [Compound 668, 3-(6-ethynyl-8-(piperidin-4-yloxy)quinazolin-2-ylamino)-5-(1-methyl-1H-pyrazol-4-yl)benzamide], the pEC50 with PC3MM cells was greater than 5.30. Further, the pIC50 at PDK1 kinase was greater than 5.30.

As for `NC(=O)c1cc(Nc2ncc3cc(Br)cc(OC4CCNCC4)c3n2)cc(N2CCOCC2)c1` [Compound 669, 3-(6-bromo-8-(piperidin-4-yloxy)quinazolin-2-ylamino)-5-morpholinobenzamide], the pEC50 in the assay with PC3MM cells was 5.00 to 5.30. Moreover, the negative-log IC50 (pIC50) at PDK1 kinase was greater than 5.30.

On to `O=C(c1cc(Nc2ncc3cc(Br)cc(OC4CCNCC4)c3n2)cc(N2CCOCC2)c1)N1CCOCC1` [Compound 670, (3-(6-bromo-8-(piperidin-4-yloxy)quinazolin-2-ylamino)-5-morpholinophenyl)(morpholino) methanone], for which the pEC50 in the assay on PC3MM cells is greater than 5.30. For the same compound, the pIC50 on PDK1 kinase is greater than 5.30.

For `Cn1cc(-c2cc(Nc3ncc4cc(Br)cc(OC5CCNCC5)c4n3)cc(C(N)=O)c2)cn1` [Compound 671, 3-(6-bromo-8-(piperidin-4-yloxy)quinazolin-2-ylamino)-5-(1-methyl-1H-pyrazol-4-yl)benzamide], in the assay with PC3MM cells, the pEC50 was greater than 5.30. The negative-log IC50 (pIC50) at PDK1 kinase is greater than 5.30.

Consider `NC(=O)c1cc(Nc2ncc3cc(-c4nccs4)cc(OC4CCNCC4)c3n2)cc(N2CCOCC2)c1` [Compound 672, 3-morpholino-5-(8-(piperidin-4-yloxy)-6-(thiazol-2-yl)quinazolin-2-ylamino)benzamide], for which, in the assay on PC3MM cells, the pEC50 is 5.00 to 5.30. In addition, the pIC50 on PDK1 kinase was greater than 5.30.

On to `Cn1cc(-c2cc(Nc3ncc4cc(-c5nccs5)cc(OC5CCNCC5)c4n3)cc(C(N)=O)c2)cn1` [Compound 673, 3-(1-methyl-1H-pyrazol-4-yl)-5-(8-(piperidin-4-yloxy)-6-(thiazol-2-yl)quinazolin-2-ylamino)benzamide], for which, in the assay with PC3MM cells, the pEC50 was 5.00 to 5.30. The negative-log IC50 (pIC50) at PDK1 kinase is greater than 5.30.

Take `NC(=O)c1cc(Nc2ncc3cc(-c4cn[nH]c4)c(OC4CCNCC4)cc3n2)cc(N2CCOCC2)c1` [Compound 674, 3-morpholino-5-(7-(piperidin-4-yloxy)-6-(1H-pyrazol-4-yl)quinazolin-2-ylamino)benzamide]: the pEC50 with PC3MM cells is 5.00 to 5.30. For the same compound, the pIC50 on PDK1 kinase is greater than 5.30.

Take `NC(=O)c1cc(Nc2ncc3cc(-c4nccs4)c(OC4CCNCC4)cc3n2)cc(N2CCOCC2)c1` [Compound 675, 3-morpholino-5-(7-(piperidin-4-yloxy)-6-(thiazol-2-yl)quinazolin-2-ylamino)benzamide]: in the assay with PC3MM cells, the pEC50 is 5.00 to 5.30. The pIC50 at PDK1 kinase was greater than 5.30.

Regarding `COC(=O)Nc1cc(Nc2ncc3cc(-c4cn[nH]c4)c(OC4CCN(C)CC4)cc3n2)cc(-c2cn[nH]c2)c1` [Compound 676, methyl 3-(7-(1-methylpiperidin-4-yloxy)-6-(1H-pyrazol-4-yl)quinazolin-2-ylamino)-5-(1H-pyrazol-4-yl)phenylcarbamate], the pEC50 with PC3MM cells was greater than 5.30. Also, the pIC50 on PDK1 kinase is greater than 5.30.

In the case of `CN1CCC(Oc2cc3nc(Nc4cc(C(N)=O)cc(N5CCOCC5)c4)ncc3cc2-c2cn[nH]c2)CC1` [Compound 677, 3-(7-(1-methylpiperidin-4-yloxy)-6-(1H-pyrazol-4-yl)quinazolin-2-ylamino)-5-morpholinobenzamide], in the assay on PC3MM cells, the pEC50 is 5.00 to 5.30. Moreover, the negative logarithm of the IC50 (pIC50) on PDK1 kinase is greater than 5.30.

Source of the values: US7932262B2 (Novartis AG, priority 2006, dated 2011).
